# ChEMBL document CHEMBL5058649, “Data for DCP probe BAY 1816032” (2022)
# Experiments:
# [1] = biological target: Uncharacterized serine/threonine-protein kinase SBK3 (Homo sapiens) (UniProt P0C264); assay: SgK110 DiscoveRx kinase panel; conditions: Compound concentration 1.0 uM
# [2] = biological target: Serine/threonine-protein kinase STK11 (Homo sapiens) (UniProt Q15831); assay: LKB1 DiscoveRx kinase panel; conditions: Compound concentration 1.0 uM
# [3] = biological target: Ephrin type-A receptor 3 (Homo sapiens) (UniProt P29320); assay: EPHA3 DiscoveRx kinase panel; conditions: Compound concentration 1.0 uM
# [4] = biological target: Tyrosine-protein kinase Mer (Homo sapiens) (UniProt Q12866); assay: MERTK DiscoveRx kinase panel; conditions: Compound concentration 1.0 uM
# [5] = biological target: Glutamate NMDA receptor (Rattus norvegicus) (UniProt P35439+Q00959+Q00960+Q00961+Q62645+Q8VHN2+Q9R1M7); conditions: Compound concentration 10.0 uM
# [6] = biological target: Mitogen-activated protein kinase kinase kinase 6 (Homo sapiens) (UniProt O95382); assay: ASK2 DiscoveRx kinase panel; conditions: Compound concentration 1.0 uM
# [7] = biological target: RAC-gamma serine/threonine-protein kinase (Homo sapiens) (UniProt Q9Y243); assay: AKT3 DiscoveRx kinase panel; conditions: Compound concentration 1.0 uM
# Homo sapiens = species: Homo sapiens; assay: Glutamate, Metabotropic, mGlu5 Eurofins-Panlabs radioligand binding assay; conditions: Compound concentration 10.0 uM
# [8] = biological target: Bone morphogenetic protein receptor type-1A (Homo sapiens) (UniProt P36894); assay: BMPR1A DiscoveRx kinase panel; conditions: Compound concentration 1.0 uM
# [9] = biological target: Phosphatidylinositol 4-phosphate 5-kinase type-1 gamma (Homo sapiens) (UniProt O60331); assay: PIP5K1C DiscoveRx kinase panel; conditions: Compound concentration 1.0 uM
# [10] = biological target: Serine/threonine-protein kinase tousled-like 2 (Homo sapiens) (UniProt Q86UE8); assay: TLK2 DiscoveRx kinase panel; conditions: Compound concentration 1.0 uM
# [11] = biological target: Tyrosine-protein kinase Lyn (Homo sapiens) (UniProt P07948); assay: LYN DiscoveRx kinase panel; conditions: Compound concentration 1.0 uM
# [12] = biological target: Leucine-rich repeat serine/threonine-protein kinase 2 (Homo sapiens) (UniProt Q5S007); assay: LRRK2 DiscoveRx kinase panel; conditions: Compound concentration 1.0 uM
# [13] = biological target: Phosphodiesterase 3 (Homo sapiens) (UniProt Q14432+Q13370); assay: Inhibition of Phosphodiesterase PDE3 at compound concentration of 10.0 uM in the Eurofins-Panlabs enzyme assay (Eurofins_assay_152000); type: protein assay; design: substrate with concentration 1.01 uM [3H] cAMP + cAMP, incubation time 20 min, incubation temperature 25 C; conditions: Compound concentration 10.0 uM
# [14] = biological target: Non-receptor tyrosine-protein kinase TNK1 (Homo sapiens) (UniProt Q13470); assay: TNK1 DiscoveRx kinase panel; conditions: Compound concentration 1.0 uM
# [15] = biological target: Mitogen-activated protein kinase 14 (Homo sapiens) (UniProt Q16539); assay: p38-alpha DiscoveRx kinase panel; conditions: Compound concentration 1.0 uM
# [16] = biological target: Maternal embryonic leucine zipper kinase (Homo sapiens) (UniProt Q14680); assay: MELK DiscoveRx kinase panel; conditions: Compound concentration 1.0 uM
# [17] = biological target: Serine/threonine-protein kinase haspin (Homo sapiens) (UniProt Q8TF76); assay: HASPIN DiscoveRx kinase panel; conditions: Compound concentration 1.0 uM
# [18] = biological target: Serine/threonine-protein kinase tousled-like 1 (Homo sapiens) (UniProt Q9UKI8); assay: TLK1 DiscoveRx kinase panel; conditions: Compound concentration 1.0 uM
# [19] = biological target: Ephrin type-A receptor 2 (Homo sapiens) (UniProt P29317); assay: EPHA2 DiscoveRx kinase panel; conditions: Compound concentration 1.0 uM
# [20] = biological target: MAP kinase-activated protein kinase 5 (Homo sapiens) (UniProt Q8IW41); assay: MAPKAPK5 DiscoveRx kinase panel; conditions: Compound concentration 1.0 uM
# [21] = biological target: Transient receptor potential cation channel subfamily M member 6 (Homo sapiens) (UniProt Q9BX84); assay: TRPM6 DiscoveRx kinase panel; conditions: Compound concentration 1.0 uM
# [22] = biological target: Atypical kinase COQ8A, mitochondrial (Homo sapiens) (UniProt Q8NI60); assay: ADCK3 DiscoveRx kinase panel; conditions: Compound concentration 1.0 uM
# [23] = biological target: Receptor-interacting serine/threonine-protein kinase 2 (Homo sapiens) (UniProt O43353); assay: RIPK2 DiscoveRx kinase panel; conditions: Compound concentration 1.0 uM
# [24] = biological target: Glutamate receptor 2 (Homo sapiens) (UniProt P42262); conditions: Rattus norvegicus; Compound concentration 10.0 uM
# [25] = biological target: Dual specificity protein kinase TTK (Homo sapiens) (UniProt P33981); assay: TTK DiscoveRx kinase panel; conditions: Compound concentration 1.0 uM
# [26] = biological target: Cannabinoid receptor 2 (Homo sapiens) (UniProt P34972); conditions: Compound concentration 10.0 uM
# [27] = biological target: Phosphatidylinositol 4-kinase beta (Homo sapiens) (UniProt Q9UBF8); assay: PIK4CB DiscoveRx kinase panel; conditions: Compound concentration 1.0 uM
# [28] = biological target: Mitogen-activated protein kinase kinase kinase kinase 5 (Homo sapiens) (UniProt Q9Y4K4); assay: MAP4K5 DiscoveRx kinase panel; conditions: Compound concentration 1.0 uM
# [29] = biological target: Calcium/calmodulin-dependent protein kinase kinase 1 (Homo sapiens) (UniProt Q8N5S9); assay: CAMKK1 DiscoveRx kinase panel; conditions: Compound concentration 1.0 uM
# [30] = biological target: Tyrosine-protein kinase Fes/Fps (Homo sapiens) (UniProt P07332); assay: FES DiscoveRx kinase panel; conditions: Compound concentration 1.0 uM
# Rattus norvegicus = species: Rattus norvegicus; assay: Inhibition of Glutamate, NMDA, Phencyclidine at 10 µM in the Eurofins-Panlabs radioligand binding assay (Eurofins_assay_233000); type: protein-complex assay; conditions: Compound concentration 10.0 uM
# [31] = biological target: Adenosine Transporter (Cavia porcellus) (UniProt H0V4R7+H0UUG1+H0V3Z5); assay: Inhibition of Transporter, Adenosine at compound concentration of 10.0 uM in the Eurofins-Panlabs radioligand binding assay (Eurofins_assay_202000); type: protein assay; design: ligand concentration 0.5 nM, non-specific ligand with concentration 5 uM Nitrobenzylthioinosine, incubation time 30 min, incubation temperature 25 C; conditions: Compound concentration 10.0 uM
# [32] = biological target: Cyclin-dependent kinase 5 (Homo sapiens) (UniProt Q00535); assay: CDK5 DiscoveRx kinase panel; conditions: Compound concentration 1.0 uM
# [33] = biological target: 5-hydroxytryptamine receptor 7 (Homo sapiens, UniProt P34969); assay: GPCRScan assay: inhibition of 5-HT7A; design: radioligand conc. used [nm] 5.0 – 6.0, parental cells Stable HEK
# [34] = biological target: TGF-beta receptor type-2 (Homo sapiens) (UniProt P37173); assay: TGFBR2 DiscoveRx kinase panel; conditions: Compound concentration 1.0 uM
# [35] = biological target: Alpha-2C adrenergic receptor (Homo sapiens, UniProt P18825); assay: GPCRScan assay: inhibition of Alpha2C; design: radioligand conc. used [nm] 0.5 – 1.0, parental cells stable MDCK
# [36] = biological target: Muscarinic acetylcholine receptor M5 (Homo sapiens) (UniProt P08912); conditions: Compound concentration 10.0 uM
# [37] = biological target: Dual specificity mitogen-activated protein kinase kinase 6 (Homo sapiens) (UniProt P52564); assay: MEK6 DiscoveRx kinase panel; conditions: Compound concentration 1.0 uM
# [38] = biological target: Histamine H1 receptor (Homo sapiens) (UniProt P35367); conditions: Compound concentration 10.0 uM
# [39] = biological target: Serine/threonine-protein kinase TAO2 (Homo sapiens) (UniProt Q9UL54); assay: TAOK2 DiscoveRx kinase panel; conditions: Compound concentration 1.0 uM
# [40] = biological target: Serine/threonine-protein kinase Nek4 (Homo sapiens) (UniProt P51957); assay: NEK4 DiscoveRx kinase panel; conditions: Compound concentration 1.0 uM
# [41] = biological target: Calcium/calmodulin-dependent protein kinase kinase 2 (Homo sapiens) (UniProt Q96RR4); assay: CAMKK2 DiscoveRx kinase panel; conditions: Compound concentration 1.0 uM
# [42] = biological target: Bone morphogenetic protein receptor type-1B (Homo sapiens) (UniProt O00238); assay: BMPR1B DiscoveRx kinase panel; conditions: Compound concentration 1.0 uM
# [43] = biological target: Serine/threonine-protein kinase PAK 5 (Homo sapiens) (UniProt Q9P286); assay: PAK7 DiscoveRx kinase panel; conditions: Compound concentration 1.0 uM
# [44] = biological target: Ribosomal protein S6 kinase alpha-3 (Homo sapiens) (UniProt P51812); assay: RSK2(Kin.Dom.1-N-terminal) DiscoveRx kinase panel; conditions: Compound concentration 1.0 uM
# [45] = biological target: Death-associated protein kinase 2 (Homo sapiens) (UniProt Q9UIK4); assay: DAPK2 DiscoveRx kinase panel; conditions: Compound concentration 1.0 uM
# Chain of Death-associated protein kinase 2 (Homo sapiens) (Q9UIK4 whole entry, looked up): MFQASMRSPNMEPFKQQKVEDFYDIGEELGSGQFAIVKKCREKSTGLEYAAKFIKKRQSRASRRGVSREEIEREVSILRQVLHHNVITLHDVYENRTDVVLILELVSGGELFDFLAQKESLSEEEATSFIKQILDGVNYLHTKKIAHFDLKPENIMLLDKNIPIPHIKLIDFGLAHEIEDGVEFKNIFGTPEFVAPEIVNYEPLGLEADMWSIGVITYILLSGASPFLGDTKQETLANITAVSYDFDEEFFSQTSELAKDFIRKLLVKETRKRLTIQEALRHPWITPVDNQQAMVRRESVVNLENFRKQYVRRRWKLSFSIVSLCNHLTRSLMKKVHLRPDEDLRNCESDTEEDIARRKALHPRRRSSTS
# Chain of Alpha-2C adrenergic receptor (P18825 whole entry): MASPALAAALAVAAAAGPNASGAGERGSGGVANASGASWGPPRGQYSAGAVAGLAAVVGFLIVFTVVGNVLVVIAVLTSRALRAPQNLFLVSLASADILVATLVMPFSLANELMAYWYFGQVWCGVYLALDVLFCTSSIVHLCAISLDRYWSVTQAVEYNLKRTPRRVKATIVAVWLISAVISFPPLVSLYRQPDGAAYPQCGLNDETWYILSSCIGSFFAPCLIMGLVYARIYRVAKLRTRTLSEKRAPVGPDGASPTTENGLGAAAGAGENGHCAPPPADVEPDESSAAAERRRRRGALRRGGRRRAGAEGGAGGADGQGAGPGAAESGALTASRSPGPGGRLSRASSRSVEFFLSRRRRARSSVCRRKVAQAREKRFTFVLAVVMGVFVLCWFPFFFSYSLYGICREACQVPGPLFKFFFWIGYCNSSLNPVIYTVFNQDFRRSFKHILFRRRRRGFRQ
# Chain of 5-hydroxytryptamine receptor 7 (P34969 whole entry): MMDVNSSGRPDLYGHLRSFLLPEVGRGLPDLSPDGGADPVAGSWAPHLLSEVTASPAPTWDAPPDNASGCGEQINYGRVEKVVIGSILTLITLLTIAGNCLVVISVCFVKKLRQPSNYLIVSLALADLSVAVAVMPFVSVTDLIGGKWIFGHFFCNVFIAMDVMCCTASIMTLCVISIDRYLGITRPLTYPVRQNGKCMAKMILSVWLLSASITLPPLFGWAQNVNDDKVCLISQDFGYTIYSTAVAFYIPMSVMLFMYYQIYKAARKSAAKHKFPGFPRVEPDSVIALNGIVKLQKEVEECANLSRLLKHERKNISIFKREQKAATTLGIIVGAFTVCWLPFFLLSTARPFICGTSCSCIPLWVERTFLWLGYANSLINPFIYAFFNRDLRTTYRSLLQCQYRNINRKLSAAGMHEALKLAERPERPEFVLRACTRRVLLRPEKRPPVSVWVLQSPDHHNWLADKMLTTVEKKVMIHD
# Chain of MAP kinase-activated protein kinase 5 (Homo sapiens) (Q8IW41 whole entry): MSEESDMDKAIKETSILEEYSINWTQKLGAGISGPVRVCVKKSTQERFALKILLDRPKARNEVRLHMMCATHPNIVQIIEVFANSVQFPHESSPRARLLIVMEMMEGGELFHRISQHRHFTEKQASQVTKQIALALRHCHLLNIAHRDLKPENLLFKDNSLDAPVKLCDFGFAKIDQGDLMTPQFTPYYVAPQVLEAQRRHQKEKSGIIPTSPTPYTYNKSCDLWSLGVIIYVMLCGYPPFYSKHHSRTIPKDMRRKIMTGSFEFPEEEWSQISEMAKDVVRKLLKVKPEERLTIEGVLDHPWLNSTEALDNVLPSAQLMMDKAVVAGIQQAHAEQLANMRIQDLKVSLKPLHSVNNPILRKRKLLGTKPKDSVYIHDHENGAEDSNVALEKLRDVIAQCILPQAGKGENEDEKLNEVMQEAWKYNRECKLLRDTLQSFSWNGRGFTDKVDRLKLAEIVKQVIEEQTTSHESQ
# Chain of Mitogen-activated protein kinase kinase kinase kinase 5 (Homo sapiens) (Q9Y4K4 whole entry, looked up): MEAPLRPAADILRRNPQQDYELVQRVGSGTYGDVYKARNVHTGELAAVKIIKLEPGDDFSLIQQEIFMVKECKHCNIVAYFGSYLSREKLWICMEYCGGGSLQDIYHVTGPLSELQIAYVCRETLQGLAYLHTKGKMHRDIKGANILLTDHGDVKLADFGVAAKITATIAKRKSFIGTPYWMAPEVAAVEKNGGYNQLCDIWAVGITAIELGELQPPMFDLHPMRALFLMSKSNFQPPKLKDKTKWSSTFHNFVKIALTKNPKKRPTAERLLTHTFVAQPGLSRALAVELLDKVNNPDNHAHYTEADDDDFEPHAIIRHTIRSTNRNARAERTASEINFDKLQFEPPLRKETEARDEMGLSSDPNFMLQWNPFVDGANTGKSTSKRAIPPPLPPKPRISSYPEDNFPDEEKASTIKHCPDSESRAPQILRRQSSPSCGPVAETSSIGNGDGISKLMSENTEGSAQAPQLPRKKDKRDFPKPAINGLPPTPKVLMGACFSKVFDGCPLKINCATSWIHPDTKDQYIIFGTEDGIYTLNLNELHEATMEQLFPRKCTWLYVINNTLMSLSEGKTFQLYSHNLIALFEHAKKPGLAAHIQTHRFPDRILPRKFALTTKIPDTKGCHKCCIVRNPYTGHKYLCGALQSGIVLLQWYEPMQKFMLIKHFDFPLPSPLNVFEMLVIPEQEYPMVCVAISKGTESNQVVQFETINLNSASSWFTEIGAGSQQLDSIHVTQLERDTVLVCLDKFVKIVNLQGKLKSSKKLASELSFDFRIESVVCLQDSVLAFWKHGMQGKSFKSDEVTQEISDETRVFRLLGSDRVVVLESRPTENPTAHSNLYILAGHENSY
# Chain of Uncharacterized serine/threonine-protein kinase SBK3 (Homo sapiens) (P0C264 whole entry): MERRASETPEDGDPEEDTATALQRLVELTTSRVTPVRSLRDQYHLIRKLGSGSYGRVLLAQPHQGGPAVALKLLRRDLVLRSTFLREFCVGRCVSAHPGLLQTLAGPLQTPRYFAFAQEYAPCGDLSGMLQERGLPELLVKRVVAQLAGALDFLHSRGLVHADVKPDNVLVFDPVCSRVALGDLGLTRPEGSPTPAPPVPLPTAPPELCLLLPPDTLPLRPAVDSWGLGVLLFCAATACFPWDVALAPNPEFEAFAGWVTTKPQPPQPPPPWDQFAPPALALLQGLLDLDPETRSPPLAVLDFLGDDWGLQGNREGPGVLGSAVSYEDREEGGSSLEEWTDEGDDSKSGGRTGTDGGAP
# Chain of Serine/threonine-protein kinase PAK 5 (Homo sapiens) (Q9P286 whole entry, looked up): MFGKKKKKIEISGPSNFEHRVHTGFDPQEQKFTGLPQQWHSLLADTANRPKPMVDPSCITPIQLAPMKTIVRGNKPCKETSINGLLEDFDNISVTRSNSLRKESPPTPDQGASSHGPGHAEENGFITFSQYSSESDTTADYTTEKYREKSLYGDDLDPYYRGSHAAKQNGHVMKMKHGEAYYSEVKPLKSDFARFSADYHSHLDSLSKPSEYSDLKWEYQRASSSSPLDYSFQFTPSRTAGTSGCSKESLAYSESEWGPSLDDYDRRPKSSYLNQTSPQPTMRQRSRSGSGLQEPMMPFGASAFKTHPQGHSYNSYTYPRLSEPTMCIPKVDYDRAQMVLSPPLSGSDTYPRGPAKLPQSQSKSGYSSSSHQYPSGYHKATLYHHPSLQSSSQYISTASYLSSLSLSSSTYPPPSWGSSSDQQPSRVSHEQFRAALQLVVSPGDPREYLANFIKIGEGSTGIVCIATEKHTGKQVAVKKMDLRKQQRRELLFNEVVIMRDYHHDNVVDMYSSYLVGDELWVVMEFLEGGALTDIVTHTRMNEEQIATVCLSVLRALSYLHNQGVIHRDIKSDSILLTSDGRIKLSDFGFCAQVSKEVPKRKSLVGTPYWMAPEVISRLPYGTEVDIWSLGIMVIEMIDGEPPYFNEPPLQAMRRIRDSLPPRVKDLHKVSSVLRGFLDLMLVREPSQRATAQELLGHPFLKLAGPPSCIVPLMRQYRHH
# Chain of Phosphatidylinositol 4-phosphate 5-kinase type-1 gamma (Homo sapiens) (O60331 whole entry): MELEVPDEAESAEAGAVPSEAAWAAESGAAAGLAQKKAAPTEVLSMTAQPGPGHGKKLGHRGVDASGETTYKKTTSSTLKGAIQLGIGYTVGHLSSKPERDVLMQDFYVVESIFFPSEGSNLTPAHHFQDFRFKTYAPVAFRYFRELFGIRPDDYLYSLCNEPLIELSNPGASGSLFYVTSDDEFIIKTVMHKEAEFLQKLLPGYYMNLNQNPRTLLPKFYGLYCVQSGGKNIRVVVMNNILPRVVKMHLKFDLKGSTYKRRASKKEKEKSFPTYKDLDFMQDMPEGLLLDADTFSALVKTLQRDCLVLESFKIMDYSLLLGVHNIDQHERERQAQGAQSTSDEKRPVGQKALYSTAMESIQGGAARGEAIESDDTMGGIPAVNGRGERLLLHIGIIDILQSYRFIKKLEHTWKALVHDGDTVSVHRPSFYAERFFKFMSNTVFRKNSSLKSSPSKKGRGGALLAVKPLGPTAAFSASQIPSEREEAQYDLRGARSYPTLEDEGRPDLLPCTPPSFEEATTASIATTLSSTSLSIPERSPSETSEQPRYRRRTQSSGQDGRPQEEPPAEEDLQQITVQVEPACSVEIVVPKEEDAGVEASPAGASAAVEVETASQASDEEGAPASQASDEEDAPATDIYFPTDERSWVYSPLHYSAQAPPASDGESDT
# Chain of RAC-gamma serine/threonine-protein kinase (Homo sapiens) (Q9Y243 whole entry): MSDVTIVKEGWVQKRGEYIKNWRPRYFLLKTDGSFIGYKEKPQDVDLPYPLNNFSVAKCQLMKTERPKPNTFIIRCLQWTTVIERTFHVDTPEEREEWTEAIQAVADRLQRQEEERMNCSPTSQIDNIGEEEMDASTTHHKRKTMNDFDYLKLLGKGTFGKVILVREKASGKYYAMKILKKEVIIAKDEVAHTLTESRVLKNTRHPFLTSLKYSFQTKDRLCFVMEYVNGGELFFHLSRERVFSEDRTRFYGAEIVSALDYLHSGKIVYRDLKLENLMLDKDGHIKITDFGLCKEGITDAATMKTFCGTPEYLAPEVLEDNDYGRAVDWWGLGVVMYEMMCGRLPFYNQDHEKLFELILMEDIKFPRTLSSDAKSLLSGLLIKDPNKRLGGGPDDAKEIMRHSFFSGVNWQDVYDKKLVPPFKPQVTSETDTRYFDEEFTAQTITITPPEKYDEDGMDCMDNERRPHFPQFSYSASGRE
structure (smiles),measurement,setting,value
COc1cnccc1Nc1nc(-c2nn(Cc3c(F)cc(OCCO)cc3F)c3ccccc23)ncc1OC,residual activity,[1],100%
same,residual activity,[2],100%
same,residual activity,[3],85%
same,residual activity,[4],83%
same,inhibition,[5],-2%
same,residual activity,[6],82%
same,residual activity,[7],100%
same,inhibition,Homo sapiens,17%
same,residual activity,[8],74%
same,residual activity,[9],100%
same,residual activity,[10],96%
same,residual activity,[11],100%
same,residual activity,[12],100%
same,inhibition,[13],4%
same,residual activity,[14],62%
same,residual activity,[15],100%
same,residual activity,[16],84%
same,residual activity,[17],100%
same,residual activity,[18],85%
same,residual activity,[19],100%
same,residual activity,[20],100%
same,residual activity,[21],82%
same,residual activity,[22],98%
same,residual activity,[23],82%
same,inhibition,[24],7%
same,residual activity,[25],62%
same,inhibition,[26],31%
same,residual activity,[27],87%
same,residual activity,[28],81%
same,residual activity,[29],100%
same,residual activity,[30],80%
same,inhibition,Rattus norvegicus,2%
same,inhibition,[31],71%
same,residual activity,[32],81%
same,Ki,[33],> 10 µM
same,pKi,[33],< 5
same,residual activity,[34],100%
same,Ki,[35],> 10 µM
same,pKi,[35],< 5
same,inhibition,[36],8.89%
same,residual activity,[37],89%
same,inhibition,[38],16.9%
same,residual activity,[39],100%
same,residual activity,[40],99%
same,residual activity,[41],100%
same,residual activity,[42],100%
same,residual activity,[43],85%
same,residual activity,[44],100%
same,residual activity,[45],85%
